Earlier results, collected in patent publication US7838281B2, “Sulfide bath” (Soothing Sulfur Spas, LLC, priority 2007, dated 2010).

Settings: aqueous solution

pK for the HCO3^−/CO2	Structure (SMILES)	pK for the HS^−/S^−2
6.2	O=C(O)O [HCO3^−]	
	S [HS^−]	14
